± gives the standard deviation of the averaged measurements.
Legend:
LENVATINIB = compound: COc1cc2nccc(Oc3ccc(NC(=O)NC4CC4)c(Cl)c3)c2cc1C(N)=O [LENVATINIB]; test: surviving fraction relative to DMSO-only wells; higher = less growth inhibition; settings: exposure time: 5 days
Outline: (§1)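 At 250–500 cells per well in 384-well plates, log-phase tumour cell lines were seeded and, 24 hours on, exposed continuously for five days to inhibitors at 0.5, 1, 5, 10, 50, 100, 500 and 1000 nM. Viability readout was CellTiter-Glo luminescence, reported as surviving fraction normalised to the median of DMSO-only wells.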

[1] = compound: CCc1cc(Nc2nccc(-c3c(-c4ccc(OC)c(C(=O)Nc5c(F)cccc5F)c4)nc4ccccn34)n2)c(OC)cc1N1CCC(N2CCN(S(C)(=O)=O)CC2)CC1; test: as above; settings: exposure time: 5 days
Outline: as §1

Test System | surviving fraction (LENVATINIB; 0.5 nM) | surviving fraction (LENVATINIB; 1 nM) | surviving fraction (LENVATINIB; 5 nM) | surviving fraction (LENVATINIB; 10 nM) | surviving fraction (LENVATINIB; 50 nM) | surviving fraction (LENVATINIB; 100 nM) | surviving fraction (LENVATINIB; 500 nM) | surviving fraction (LENVATINIB; 1000 nM) | surviving fraction ([1]; 0.5 nM) | surviving fraction ([1]; 1 nM) | surviving fraction ([1]; 5 nM) | surviving fraction ([1]; 10 nM) | surviving fraction ([1]; 50 nM) | surviving fraction ([1]; 100 nM) | surviving fraction ([1]; 500 nM) | surviving fraction ([1]; 1000 nM)
G292 BONE | 0.99 ± 0.053 | 0.993 ± 0.054 | 1.02 ± 0.065 | 0.961 ± 0.019 | 0.838 ± 0.027 | 0.725 ± 0.013 | 0.33 ± 0.017 | 0.203 ± 0.0041 | 1.03 ± 0.072 | 0.969 ± 0.032 | 1 ± 0.061 | 1 ± 0.023 | 1.03 ± 0.041 | 0.994 ± 0.013 | 1.018 ± 0.0097 | 0.975 ± 0.035
HCC38 BREAST | 1.03 ± 0.056 | 1.19 ± 0.23 | 1.24 ± 0.24 | 1.19 ± 0.091 | 1.35 ± 0.052 | 1.28 ± 0.054 | 1.18 ± 0.091 | 1.09 ± 0.17 | 1.09 ± 0.18 | 1.19 ± 0.28 | 1.1 ± 0.23 | 1.02 ± 0.23 | 0.855 ± 0.2 | 1.07 ± 0.17 | 0.923 ± 0.12 | 0.881 ± 0.13
HCC70 BREAST | 1.12 ± 0.07 | 1.136 ± 0.004 | 1.08 ± 0.067 | 1.15 ± 0.013 | 1.27 ± 0.1 | 1.13 ± 0.056 | 1.054 ± 0.0066 | 1.23 ± 0.09 | 1.08 ± 0.059 | 0.975 ± 0.12 | 1.07 ± 0.039 | 1.09 ± 0.1 | 1.08 ± 0.051 | 1.12 ± 0.096 | 1.03 ± 0.13 | 0.994 ± 0.052
HMLE3 BREAST | 1.03 ± 0.019 | 0.951 ± 0.054 | 1.03 ± 0.052 | 1.05 ± 0.09 | 0.998 ± 0.12 | 0.905 ± 0.096 | 0.718 ± 0.029 | 0.658 ± 0.047 | 0.947 ± 0.037 | 0.931 ± 0.073 | 1 ± 0.013 | 1.09 ± 0.038 | 0.967 ± 0.066 | 0.979 ± 0.081 | 0.908 ± 0.049 | 0.834 ± 0.062
HMT3552 BREAST | 1.03 | 0.978 | 1.01 | 0.921 | 0.975 | 1.02 | 0.944 | 0.893 | 1.14 | 1.08 | 1.08 | 1.1 | 1.17 | 1.18 | 1.21 | 1.3
HS57T BREAST | 1.04 ± 0.027 | 1.01 ± 0.085 | 1.084 ± 0.0086 | 1.14 ± 0.049 | 1.1 ± 0.042 | 1.09 ± 0.064 | 0.831 ± 0.029 | 0.74 ± 0.023 | 0.949 ± 0.082 | 1.01 ± 0.063 | 1.05 ± 0.021 | 1.05 ± 0.018 | 1.02 ± 0.052 | 1.06 ± 0.085 | 0.992 ± 0.036 | 0.945 ± 0.024
HS578T BREAST | 0.934 ± 0.11 | 1.16 ± 0.058 | 0.871 ± 0.17 | 0.974 ± 0.041 | 0.984 ± 0.078 | 0.91 ± 0.068 | 1.01 ± 0.1 | 0.871 ± 0.045 | 0.891 ± 0.1 | 0.952 ± 0.025 | 0.965 ± 0.12 | 0.902 ± 0.042 | 0.803 ± 0.064 | 0.88 ± 0.14 | 0.931 ± 0.022 | 0.776 ± 0.078

From the supplement of paper PMC6045584
